Where a name gives a salt, the structure may show the parent alone.
Tests used:
[1] = target: T1, Recombinant (1-346) HPK1 (h) (Homo sapiens, UniProt Q92918); test: HPK1 Human STE Kinase Enzymatic Radiometric Assay; assay type: biochemical; settings: read-out: HPK1 IC50 nM Range*
T1 construct: Recombinant (1-346) HPK1 (h) is incubated with 8 mM MOPS pH 7.0
T1 sequence (Q92918 1-346): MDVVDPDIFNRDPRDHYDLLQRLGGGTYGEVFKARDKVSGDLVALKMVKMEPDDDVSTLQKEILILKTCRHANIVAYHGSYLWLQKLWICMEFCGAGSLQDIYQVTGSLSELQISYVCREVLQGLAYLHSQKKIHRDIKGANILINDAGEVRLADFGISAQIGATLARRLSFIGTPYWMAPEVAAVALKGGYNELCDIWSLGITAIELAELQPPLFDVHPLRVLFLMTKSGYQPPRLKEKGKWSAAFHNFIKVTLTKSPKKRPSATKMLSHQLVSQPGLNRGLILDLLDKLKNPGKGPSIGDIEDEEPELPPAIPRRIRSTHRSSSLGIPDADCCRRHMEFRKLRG
Description: A stock solution of 10 mM of test compound is prepared in DMSO. The compound plate was prepared by 3-fold and 9-point serial dilutions. […] The reaction is initiated by The addition of the Mg/ATP mix. After incubation for 40 minutes at RT, the reaction is stopped by the addition of phosphoric acid to a concentration of 0.5%.

[2] = target: Lck (h) (Homo sapiens, UniProt P06239); test: Lck Human  Kinase Enzymatic Radiometric Assay; assay type: biochemical; settings: read-out: Lck IC50 nM Range*
Outline: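 Substrate 33P-incorporation measured by scintillation counting after spotting on P30 filtermat and phosphoric acid washes. Human Lck reacted 40 min at RT in 50 mM Tris pH 7.5 with 10 mM MgAcetate, [gamma-33P]-ATP, 250 uM Cdc2 peptide, 0.1 mM EGTA and 0.1 mM Na3VO4.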

Sequence of Lck (h) (P06239 whole entry): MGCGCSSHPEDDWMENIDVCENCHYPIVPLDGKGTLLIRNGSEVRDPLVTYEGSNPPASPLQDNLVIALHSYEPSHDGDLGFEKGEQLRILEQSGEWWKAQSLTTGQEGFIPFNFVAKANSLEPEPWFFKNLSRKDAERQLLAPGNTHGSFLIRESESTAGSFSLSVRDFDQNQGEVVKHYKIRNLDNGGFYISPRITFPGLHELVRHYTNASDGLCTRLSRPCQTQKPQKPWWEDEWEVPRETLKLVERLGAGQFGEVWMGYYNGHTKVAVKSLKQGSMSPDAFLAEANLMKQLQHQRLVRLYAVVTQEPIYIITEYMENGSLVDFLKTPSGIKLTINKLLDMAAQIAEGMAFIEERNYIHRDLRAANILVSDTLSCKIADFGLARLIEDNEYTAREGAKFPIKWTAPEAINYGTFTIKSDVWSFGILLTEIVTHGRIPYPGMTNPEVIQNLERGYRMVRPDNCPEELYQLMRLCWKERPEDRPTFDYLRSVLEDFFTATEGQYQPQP

Row | SMILES | IC50 [1] [nM] | IC50 [2] [nM]
1 | CN1CCN(C2(c3ccc(-c4cc(-c5ccc6c(c5)CCNC6=O)c(N)nc4F)cc3)CC2)CC1 [I-260, 6-(2-amino-6-fluoro-5-(4-(1-(4-methylpiperazin-1-yl)cyclopropyl)phenyl)pyridin-3-yl)-3,4-dihydroisoquinolin-1(2H)-one] | 11 to 100 | > 1000
2 | CC(C)N1CCC(Oc2ccc(-c3cc(-c4ccc5c(c4)CCNC5=O)c(N)nc3F)cc2C(F)(F)F)CC1 [I-261, 6-(2-amino-6-fluoro-5-(4-((1-isopropylpiperidin-4-yl)oxy)-3-(trifluoromethyl)phenyl)pyridin-3-yl)-3,4-dihydroisoquinolin-1(2H)-one] | 11 to 100 | > 1000
3 | COCCN1CCC(Oc2ccc(-c3cc(-c4ccc5c(c4)CCNC5=O)c(N)nc3F)cc2C(F)(F)F)CC1 [I-262, 6-(2-amino-6-fluoro-5-(4-((1-(2-methoxyethyl)piperidin-4-yl)oxy)-3-(trifluoromethyl)phenyl)pyridin-3-yl)-3,4-dihydroisoquinolin-1(2H)-one] | 0.1 to 10 | > 1000
4 | CC(C)N1CCN(c2ccc(-c3cc(-c4cc5c(cc4F)C(=O)NCC5)c(N)nc3F)cc2C(F)(F)F)CC1 [I-263, 6-(2-amino-6-fluoro-5-(4-(4-isopropylpiperazin-1-yl)-3-(trifluoromethyl)phenyl)pyridin-3-yl)-7-fluoro-3,4-dihydroisoquinolin-1(2H)-one] | 0.1 to 10 | > 1000
5 | COCCN1CCN(c2ccc(-c3cc(-c4cc5c(cc4F)C(=O)NCC5)c(N)nc3F)cc2C(F)(F)F)CC1 [I-264, 6-(2-amino-6-fluoro-5-(4-(4-(2-methoxyethyl)piperazin-1-yl)-3-(trifluoromethyl)phenyl)pyridin-3-yl)-7-fluoro-3,4-dihydroisoquinolin-1(2H)-one] | 0.1 to 10 | > 1000
6 | Nc1nc(F)c(-c2cccc(CN3CCNCC3)c2)cc1-c1ccc2c(c1)CCNC2=O [I-265, 6-(2-amino-6-fluoro-5-(3-(piperazin-1-ylmethyl)phenyl)pyridin-3-yl)-3,4-dihydroisoquinolin-1(2H)-one formate] | 11 to 100 | > 1000
7 | COCCN1CCc2cc(-c3cc(-c4ccc5c(c4)CCNC5=O)c(N)nc3F)ccc2C1 [I-266, 6-(2-amino-6-fluoro-5-(2-(2-methoxyethyl)-1,2,3,4-tetrahydroisoquinolin-6-yl)pyridin-3-yl)-3,4-dihydroisoquinolin-1(2H)-one] | 11 to 100 | > 1000
8 | CC(C)N1CCC(Oc2ccc(-c3cc(-c4ccc5c(c4)CCNC5=O)c(N)nc3F)cc2)CC1 [I-267, 6-(2-amino-6-fluoro-5-(4-((1-isopropylpiperidin-4-yl)oxy)phenyl)pyridin-3-yl)-3,4-dihydroisoquinolin-1(2H)-one] | 0.1 to 10 | > 1000
9 | CC(C)N1CCC(Oc2ccc(-c3cc(-c4ccc5c(c4)CCNC5=O)c(N)nc3F)cc2F)CC1 [I-268, 6-(2-amino-6-fluoro-5-(3-fluoro-4-((1-isopropylpiperidin-4-yl)oxy)phenyl)pyridin-3-yl)-3,4-dihydroisoquinolin-1(2H)-one] | 0.1 to 10 | > 1000
10 | COCCN1CCC(Oc2ccc(-c3cc(-c4ccc5c(c4)CCNC5=O)c(N)nc3F)cc2F)CC1 [I-269, 6-(2-amino-6-fluoro-5-(3-fluoro-4-((1-(2-methoxyethyl)piperidin-4-yl)oxy)phenyl)pyridin-3-yl)-3,4-dihydroisoquinolin-1(2H)-one] | 0.1 to 10 | > 1000
11 | CC(C)N1CCC(Oc2ccc(-c3cc(-c4ccc5c(c4)CCNC5=O)c(N)nc3F)c(F)c2F)CC1 [I-270, 6-(2-amino-5-(2,3-difluoro-4-((1-isopropylpiperidin-4-yl)oxy)phenyl)-6-fluoropyridin-3-yl)-3,4-dihydroisoquinolin-1(2H)-one] | 11 to 100 | > 1000
12 | CC(C)N1CCC(Oc2cc(F)c(-c3cc(-c4ccc5c(c4)CCNC5=O)c(N)nc3F)cc2F)CC1 [I-271, 6-(2-amino-5-(2,5-difluoro-4-((1-isopropylpiperidin-4-yl)oxy)phenyl)-6-fluoropyridin-3-yl)-3,4-dihydroisoquinolin-1(2H)-one] | 11 to 100 | > 1000
13 | COc1cc(OC2CCN(C(C)C)CC2)ccc1-c1cc(-c2ccc3c(c2)CCNC3=O)c(N)nc1F [I-272, 6-(2-amino-6-fluoro-5-(4-((1-isopropylpiperidin-4-yl)oxy)-2-methoxyphenyl)pyridin-3-yl)-3,4-dihydroisoquinolin-1(2H)-one] | 0.1 to 10 | > 1000
14 | COc1cc(-c2cc(-c3ccc4c(c3)CCNC4=O)c(N)nc2F)ccc1OC1CCN(C(C)C)CC1 [I-273, 6-(2-amino-6-fluoro-5-(4-((1-isopropylpiperidin-4-yl)oxy)-3-methoxyphenyl)pyridin-3-yl)-3,4-dihydroisoquinolin-1(2H)-one] | 0.1 to 10 | > 1000
15 | CC(C)N1CCC[C@H](Oc2ccc(-c3cc(-c4ccc5c(c4)CCNC5=O)c(N)nc3F)cc2)C1 [I-274, (S)-6-(2-amino-6-fluoro-5-(4-((1-isopropylpiperidin-3-yl)oxy)phenyl)pyridin-3-yl)-3,4-dihydroisoquinolin-1(2H)-one] | 0.1 to 10 | > 1000
16 | CC(C)N1CCC(Oc2ccc(-c3cc(-c4ccc5c(c4)CCNC5=O)c(N)nc3F)c3c2OCO3)CC1 [I-275, 6-(2-amino-6-fluoro-5-(7-((1-isopropylpiperidin-4-yl)oxy)benzo[d][1,3]dioxol-4-yl)pyridin-3-yl)-3,4-dihydroisoquinolin-1(2H)-one] | 0.1 to 10 | > 1000
17 | CNCC1Cc2cc(-c3cc(-c4ccc5c(c4)CCNC5=O)c(N)nc3F)ccc2C(=O)N1 (stereo not drawn) [I-276, 6-(6-amino-2-fluoro-5-(1-oxo-1,2,3,4-tetrahydroisoquinolin-6-yl)pyridin-3-yl)-3-((methylamino)methyl)-3,4-dihydroisoquinolin-1(2H)-one] | 11 to 100 | > 1000
18 | CN1CCCN(c2ccc(-c3cc(-c4ccc5c(c4)CCNC5=O)c(N)nc3F)cc2)CC1 [I-277, 6-(2-amino-6-fluoro-5-(4-(4-methyl-1,4-diazepan-1-yl)phenyl)pyridin-3-yl)-3,4-dihydroisoquinolin-1(2H)-one] | 0.1 to 10 | > 1000
19 | CC(C)N1CCN(c2ccc(-c3cc(-c4ccc5c(c4)CCNC5=O)c(N)nc3F)cc2)CC1C (stereo not drawn) [I-278, 6-(2-amino-6-fluoro-5-(4-(4-isopropyl-3-methylpiperazin-1-yl)phenyl)pyridin-3-yl)-3,4-dihydroisoquinolin-1(2H)-one] | 0.1 to 10 | > 1000
20 | CC(C)N1CCCN(c2ccc(-c3cc(-c4ccc5c(c4)CCNC5=O)c(N)nc3F)cc2)CC1 [I-279, 6-(2-amino-6-fluoro-5-(4-(4-isopropyl-1,4-diazepan-1-yl)phenyl)pyridin-3-yl)-3,4-dihydroisoquinolin-1(2H)-one] | 0.1 to 10 | > 1000
21 | Nc1nc(F)c(-c2ccc(N3CCN4CCCC4C3)cc2)cc1-c1ccc2c(c1)CCNC2=O (stereo not drawn) [I-280, 6-(2-amino-6-fluoro-5-(4-(hexahydropyrrolo[1,2-a]pyrazin-2(1H)-yl)phenyl)pyridin-3-yl)-3,4-dihydroisoquinolin-1(2H)-one] | 0.1 to 10 | > 1000
